The source of these data is patent US20230265116A1, “DEGRADATION OF (EGFR) BY CONJUGATION OF EGFR INHIBITORS WITH E3 LIGASE LIGAND AND METHODS OF USE” (BEIGENE, LTD., priority 2020, published 2023).

Common to all, as to type: cell-based
Test [1] addresses T1, EGFR L858R/C797S (BaF3 LC cells) (Homo sapiens, UniProt P00533, C797S/L858R).
T1 construct: expressed in transfected cells; host or cells: BaF3
The test can be described thus: EGFR degradation HTRF assay, BaF3 LC cells. To be noted: BaF3 LC, 16h treatment; for Dmax: maximum percentage of degradation, read-out: BaF3 LC Dmax (%); for DC50: read-out: BaF3 LC DC50. In general terms: In TR-FRET formats the signal depends on donor and acceptor labels being close together.

Test [2] concerns EGFR Del19/T790M/C797S (H1975-clone #28). The test can be described thus: EGFR degradation HTRF assay, H1975-clone #28 DTC cells. To be noted: H1975 # 28 DTC cells; for DC50: EGFR degradation, IC50 (DC50) from curve fit, read-out: DC50(nM) H1975 # 28 DTC; for Dmax (%) H1975 # 28 DTC: maximum percentage of inhibition (degradation). Summed up:
(§1)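 Engineered H1975 lines (lentiviral mutant EGFR, endogenous EGFR knocked out, single-clone verified); 16h compound, 37° C., 5% CO2, 0.2% DMSO; 8-point 5-fold series from 10 uM final. HTRF lysate read; % degradation vs DMSO, four-parameter fit → DC50, Dmax.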

Test [3] concerns EGFR Del19/C797S (H1975-clone #23). Put plainly: EGFR degradation HTRF assay, H1975-clone #23 DC cells. The settings on record: 16h treatment; for H1975 #23 DC Dmax (%): maximum percentage of degradation; for DC50: H1975 #23 DC, read-out: H1975 #23 DC DC50. Summed up:
as §1

The target of test [4] is T2, EGFR L858R/T790M/C797S (BaF3-LTC cells) (Homo sapiens, UniProt P00533, C797S/L858R/T790M).
T2 construct: expressed in transfected cells; host or cells: BaF3
The test can be described thus: EGFR degradation HTRF assay, BaF3-LTC cells. The settings on record: BaF3-LTC cells; for DC50: EGFR degradation, IC50 (DC50) from curve fit, read-out: DC50(nM) BaF3-LTC; for Dmax: maximum percentage of inhibition (degradation), read-out: Dmax (%) BaF3-LTC. Summed up:
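EGFR remaining after a 16 h, 37 °C exposure (8 doses, 5-fold steps from 10 uM final, 0.2% DMSO) was quantified by HTRF antibodies in cell lysate. Percent inhibition relative to DMSO control was fitted by four-parameter logistic to give DC50; Dmax denotes maximal degradation.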

T2 sequence (P00533 25-1210 T790M/C797S/L858R): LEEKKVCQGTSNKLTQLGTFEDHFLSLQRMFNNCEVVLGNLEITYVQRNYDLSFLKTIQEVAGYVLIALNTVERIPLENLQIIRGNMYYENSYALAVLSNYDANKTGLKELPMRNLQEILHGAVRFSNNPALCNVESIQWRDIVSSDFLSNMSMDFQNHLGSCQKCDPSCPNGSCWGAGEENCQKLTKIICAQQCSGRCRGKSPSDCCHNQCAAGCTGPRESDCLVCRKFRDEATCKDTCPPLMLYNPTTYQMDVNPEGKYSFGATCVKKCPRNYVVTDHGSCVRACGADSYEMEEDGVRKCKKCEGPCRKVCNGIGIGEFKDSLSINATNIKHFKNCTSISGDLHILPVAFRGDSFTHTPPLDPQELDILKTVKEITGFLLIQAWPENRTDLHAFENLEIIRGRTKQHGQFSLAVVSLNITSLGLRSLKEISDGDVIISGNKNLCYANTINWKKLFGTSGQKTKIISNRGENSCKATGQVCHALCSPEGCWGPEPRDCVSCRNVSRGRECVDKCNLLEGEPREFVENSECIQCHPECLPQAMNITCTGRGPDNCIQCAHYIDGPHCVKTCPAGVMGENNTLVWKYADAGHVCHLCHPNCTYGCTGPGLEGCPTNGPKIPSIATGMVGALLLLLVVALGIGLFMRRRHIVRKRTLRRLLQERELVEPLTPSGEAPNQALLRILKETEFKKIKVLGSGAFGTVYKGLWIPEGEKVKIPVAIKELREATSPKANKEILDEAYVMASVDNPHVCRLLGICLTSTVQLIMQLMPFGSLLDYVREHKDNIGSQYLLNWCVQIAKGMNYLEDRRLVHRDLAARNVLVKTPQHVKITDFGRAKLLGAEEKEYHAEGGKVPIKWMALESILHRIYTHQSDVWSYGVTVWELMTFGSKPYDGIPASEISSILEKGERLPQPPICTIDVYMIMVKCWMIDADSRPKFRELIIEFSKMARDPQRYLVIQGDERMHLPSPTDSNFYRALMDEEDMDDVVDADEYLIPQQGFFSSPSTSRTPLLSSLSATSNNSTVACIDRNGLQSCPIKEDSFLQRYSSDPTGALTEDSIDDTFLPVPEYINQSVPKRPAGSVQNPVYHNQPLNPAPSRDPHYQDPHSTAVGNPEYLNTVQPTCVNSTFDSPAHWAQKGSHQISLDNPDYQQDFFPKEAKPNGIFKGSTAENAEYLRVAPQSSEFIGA
T1 sequence (P00533 25-1210 C797S/L858R): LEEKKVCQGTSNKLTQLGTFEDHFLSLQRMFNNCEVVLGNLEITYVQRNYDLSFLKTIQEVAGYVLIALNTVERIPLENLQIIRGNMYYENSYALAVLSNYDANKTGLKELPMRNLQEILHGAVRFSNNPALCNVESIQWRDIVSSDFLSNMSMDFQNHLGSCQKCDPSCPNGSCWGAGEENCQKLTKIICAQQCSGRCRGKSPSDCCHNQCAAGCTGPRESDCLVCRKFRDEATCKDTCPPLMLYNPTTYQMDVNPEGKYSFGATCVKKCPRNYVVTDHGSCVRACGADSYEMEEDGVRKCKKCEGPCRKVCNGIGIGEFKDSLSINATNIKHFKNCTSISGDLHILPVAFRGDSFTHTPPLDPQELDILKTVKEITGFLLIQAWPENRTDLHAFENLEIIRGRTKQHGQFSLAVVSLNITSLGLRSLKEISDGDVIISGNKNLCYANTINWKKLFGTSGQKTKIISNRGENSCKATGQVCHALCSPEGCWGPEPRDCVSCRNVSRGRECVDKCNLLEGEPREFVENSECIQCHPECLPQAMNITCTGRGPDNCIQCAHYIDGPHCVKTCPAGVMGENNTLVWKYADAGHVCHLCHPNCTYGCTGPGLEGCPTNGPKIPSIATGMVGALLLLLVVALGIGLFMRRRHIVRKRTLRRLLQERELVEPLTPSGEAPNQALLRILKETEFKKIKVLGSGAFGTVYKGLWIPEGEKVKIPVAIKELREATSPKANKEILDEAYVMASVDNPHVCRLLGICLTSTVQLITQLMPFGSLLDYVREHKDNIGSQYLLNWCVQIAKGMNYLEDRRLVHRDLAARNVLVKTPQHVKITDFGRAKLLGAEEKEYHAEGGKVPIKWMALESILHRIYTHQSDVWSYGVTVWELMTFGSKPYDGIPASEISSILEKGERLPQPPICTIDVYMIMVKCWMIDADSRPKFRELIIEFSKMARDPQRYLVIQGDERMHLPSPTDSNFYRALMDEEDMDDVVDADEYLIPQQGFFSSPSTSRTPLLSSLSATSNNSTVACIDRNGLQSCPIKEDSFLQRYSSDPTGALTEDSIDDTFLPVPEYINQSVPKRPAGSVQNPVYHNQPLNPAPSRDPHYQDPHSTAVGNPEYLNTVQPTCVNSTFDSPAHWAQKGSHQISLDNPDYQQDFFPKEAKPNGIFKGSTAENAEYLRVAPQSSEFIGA

In the case of `CCc1cc(Nc2ncc(Br)c(Nc3ccc4c(=O)n(C5CC5)ncc4c3P(C)(C)=O)n2)c(OC)cc1N1CCC(N2CCN(C(=O)[C@@H]3CCN(c4cc(F)c([C@H]5CCC(=O)NC5=O)c(F)c4)C3)CC2)CC1` [Example 526, (R)-3-(4-((R)-3-(4-(1-(4-((5-bromo-4-((2-cyclopropyl-5-(dimethylphosphoryl)-1-oxo-1,2-dihydrophthalazin-6-yl)amino)pyrimidin-2-yl)amino)-2-ethyl-5-methoxyphenyl)piperidin-4-yl)piperazine-1-carbonyl)pyrrolidin-1-yl)-2,6-difluorophenyl)piperidine-2,6-dione], in test [1], the Dmax – broadly, the greatest extent of degradation seen – amounted to 74.6% and the DC50 – broadly, the concentration giving 50% degradation – came out at 40.3 nM. Further, in test [2], the DC50 was determined as 0.574 nM and the “Dmax (%) H1975 # 28 DTC” value was determined as 83.99%. In test [3], the “H1975 #23 DC Dmax (%)” value is given as 52.26% and the half-maximal degradation concentration (DC50) came to 5.87 nM. For the same molecule, in test [4], the DC50 came to 3.77 nM and the Dmax came out at 96.3%.
Consider `CCOc1cc(N2CCC(N3CCN(CCc4cccc5c4n(C)c(=O)n5C4CCC(=O)NC4=O)CC3)CC2)c(CC)cc1Nc1ncc(Br)c(Nc2ccc3nc(CC)ccc3c2P(C)(C)=O)n1` (centres unmarked) [Example 752, 3-(4-(2-(4-(1-(4-((5-bromo-4-((5-(dimethylphosphoryl)-2-ethylquinolin-6-yl)amino)pyrimidin-2-yl)amino)-5-ethoxy-2-ethylphenyl)piperidin-4-yl)piperazin-1-yl)ethyl)-3-methyl-2-oxo-2,3-dihydro-1H-benzo[d]imidazol-1-yl)piperidine-2,6-dione], for which the DC50 in test [1] was determined as 2.23 nM; in test [2], 1 nM; in test [3] it was 1.76 nM; in test [4], 6.34 nM. Also, the “Dmax (%) H1975 # 28 DTC” value in test [2] was found to be 77.12%. Further, in test [3], the “H1975 #23 DC Dmax (%)” value is 78.99%.
Regarding `CCOc1cc(N2CCC(N3CCN(CCc4cccc5c4oc(=O)n5C4CCC(=O)NC4=O)CC3)CC2)c(CC)cc1Nc1ncc(Br)c(Nc2cc(F)c3nc(CC)ccc3c2P(C)(C)=O)n1` (centres unmarked) [Example 493, 3-(7-(2-(4-(1-(4-((5-bromo-4-((5-(dimethylphosphoryl)-2-ethyl-8-fluoroquinolin-6-yl)amino)pyrimidin-2-yl)amino)-5-ethoxy-2-ethylphenyl)piperidin-4-yl)piperazin-1-yl)ethyl)-2-oxobenzo[d]oxazol-3 (2H)-yl)piperidine-2,6-dione], the DC50 in test [1] worked out at 24.3 nM; in test [2], 0.588 nM; in test [3], 11.2 nM; in test [4] it was 2.71 nM. Besides, the “Dmax (%) H1975 # 28 DTC” value in test [2] worked out at 70.43%. Moreover, the “H1975 #23 DC Dmax (%)” value in test [3] came to 63.11%.
On to `CCc1cc(Nc2ncc(Br)c(Nc3ccc4nc(C)ccc4c3P(C)(C)=O)n2)c(OC)cc1N1CCC(N2CCN(C(=O)[C@H]3CN(c4cc(F)c([C@H]5CCC(=O)NC5=O)c(F)c4)CC3(C)C)CC2)CC1` [Example 487, (R)-3-(4-((R)-4-(4-(1-(4-((5-bromo-4-((5-(dimethylphosphoryl)-2-methylquinolin-6-yl)amino)pyrimidin-2-yl)amino)-2-ethyl-5-methoxyphenyl)piperidin-4-yl)piperazine-1-carbonyl)-3,3-dimethylpyrrolidin-1-yl)-2,6-difluorophenyl)piperidine-2,6-dione], for which the 50% degradation concentration (DC50) is 10.1 nM in test [1], 2.22 nM in test [2], 4.02 nM in test [3] and 5.25 nM in test [4]. In addition, in test [2], the “Dmax (%) H1975 # 28 DTC” value is listed as 85.45%. Besides, the “H1975 #23 DC Dmax (%)” value in test [3] is given as 74.41%.
In the case of `CCc1cc(Nc2ncc(Br)c(Nc3ccc4nc(NC(=O)C5CC5)ccc4c3P(C)(C)=O)n2)c(OC)cc1N1CCC(N2CCN(C(=O)[C@@H]3CCN(c4cc(F)c([C@H]5CCC(=O)NC5=O)c(F)c4)C3)CC2)CC1` [Example 587, N-(6-((5-bromo-2-((4-(4-(4-((R)-1-(4-((R)-2,6-dioxopiperidin-3-yl)-3,5-difluorophenyl)pyrrolidine-3-carbonyl)piperazin-1-yl)piperidin-1-yl)-5-ethyl-2-methoxyphenyl)amino)pyrimidin-4-yl)amino)-5-(dimethylphosphoryl)quinolin-2-yl)cyclopropanecarboxamide], in test [1], the greatest degradation seen (Dmax) stood at 87.8% and the DC50 was found to be 14.6 nM. In addition, in test [2], the DC50 is 0.765 nM and the “Dmax (%) H1975 # 28 DTC” value amounted to 87.02%. In test [3], the “H1975 #23 DC Dmax (%)” value was found to be 87.43% and the DC50 came to 6.14 nM. In test [4], the DC50 came to 2.19 nM and the Dmax came out at 89.2%.
For `CCOc1cc(N2CCC(N3CCN(CCc4cccc5c4n(CC)c(=O)n5C4CCC(=O)NC4=O)CC3)CC2)c(CC)cc1Nc1ncc(Br)c(Nc2ccc3nc(CC)ccc3c2P(C)(C)=O)n1` (centres unmarked) [Example 504, 3-(4-(2-(4-(1-(4-((5-bromo-4-((5-(dimethylphosphoryl)-2-ethylquinolin-6-yl)amino)pyrimidin-2-yl)amino)-5-ethoxy-2-ethylphenyl)piperidin-4-yl)piperazin-1-yl)ethyl)-3-ethyl-2-oxo-2,3-dihydro-1H-benzo[d]imidazol-1-yl)piperidine-2,6-dione], the DC50 in test [1] was 12.4 nM; in test [2] it was 0.962 nM; in test [3], 2.95 nM; in test [4], 6.56 nM. In test [2], the “Dmax (%) H1975 # 28 DTC” value was 75.99%. In addition, the “H1975 #23 DC Dmax (%)” value in test [3] came to 78.25%.
Turning to `CCc1cc(Nc2ncc(Br)c(Nc3ccc4nc(C)c(F)cc4c3P(C)(C)=O)n2)c(OC)cc1N1CCC(N2CCN(C(=O)[C@@H]3CCN(c4cc(F)c([C@H]5CCC(=O)NC5=O)c(F)c4)C3)CC2)CC1` [Example 488, (R)-3-(4-((R)-3-(4-(1-(4-((5-bromo-4-((5-(dimethylphosphoryl)-3-fluoro-2-methylquinolin-6-yl)amino)pyrimidin-2-yl)amino)-2-ethyl-5-methoxyphenyl)piperidin-4-yl)piperazine-1-carbonyl)pyrrolidin-1-yl)-2,6-difluorophenyl)piperidine-2,6-dione], the DC50 in test [1] came to 17.9 nM; in test [2], 0.97 nM; in test [3] it was 2.23 nM; in test [4], 3.52 nM. In addition, the “Dmax (%) H1975 # 28 DTC” value in test [2] stood at 84.91%. Also, in test [3], the “H1975 #23 DC Dmax (%)” value came to 67.73%.
With `CCOc1cc(N2CCC(N3CCN(CCc4cc(F)c(C5CCC(=O)NC5=O)c(F)c4)CC3)CC2)c(CC)cc1Nc1ncc(Br)c(Nc2ccc3nc(C)ccc3c2P(C)(C)=O)n1` (centres unmarked) [Example 482, 3-(4-(2-(4-(1-(4-((5-bromo-4-((5-(dimethylphosphoryl)-2-methylquinolin-6-yl)amino)pyrimidin-2-yl)amino)-5-ethoxy-2-ethylphenyl)piperidin-4-yl)piperazin-1-yl)ethyl)-2,6-difluorophenyl)piperidine-2,6-dione], in test [1], the Dmax was found to be 73.4% and the DC50 is 50.8 nM. For the same molecule, in test [2], the DC50 is 1.86 nM and the “Dmax (%) H1975 # 28 DTC” value stood at 69.65%. In addition, in test [3], the “H1975 #23 DC Dmax (%)” value worked out at 70.91% and the DC50 was 7.2 nM. In addition, in test [4], the half-maximal degradation concentration (DC50) came to 12.9 nM and the Dmax stood at 88.7%.
Turning to `CCOc1cc(N2CCC(N3CCN(CCc4cc5oc(=O)n(C6CCC(=O)NC6=O)c5cc4F)CC3)CC2)c(CC)cc1Nc1ncc(Br)c(Nc2cc(F)c3nc(CC)ccc3c2P(C)(C)=O)n1` (centres unmarked) [Example 498, 3-(6-(2-(4-(1-(4-((5-bromo-4-((5-(dimethylphosphoryl)-2-ethyl-8-fluoroquinolin-6-yl)amino)pyrimidin-2-yl)amino)-5-ethoxy-2-ethylphenyl)piperidin-4-yl)piperazin-1-yl)ethyl)-5-fluoro-2-oxobenzo[d]oxazol-3(2H)-yl)piperidine-2,6-dione], in test [1], the Dmax was found to be 92.9% and the DC50 was 0.718 nM. Besides, in test [2], the DC50 was 2.1 nM and the “Dmax (%) H1975 # 28 DTC” value is 86.84%. In test [3], the “H1975 #23 DC Dmax (%)” value was 66.76% and the DC50 was 0.377 nM. Moreover, in test [4], the DC50 turned out to be 7.62 nM and the greatest degradation seen (Dmax) was 91.4%.
As to `CCc1ccc2c(P(C)(C)=O)c(Nc3nc(Nc4cc(CC)c(N5CCC(N6CCN(C(=O)[C@H]7CN(c8cc(F)c([C@H]9CCC(=O)NC9=O)c(F)c8)CC7(C)C)CC6)CC5)cc4OC)ncc3Br)ccc2n1` [Example 754, (R)-3-(4-((R)-4-(4-(1-(4-((5-bromo-4-((5-(dimethylphosphoryl)-2-ethylquinolin-6-yl)amino)pyrimidin-2-yl)amino)-2-ethyl-5-methoxyphenyl)piperidin-4-yl)piperazine-1-carbonyl)-3,3-dimethylpyrrolidin-1-yl)-2,6-difluorophenyl)piperidine-2,6-dione], the DC50 worked out at 36.1 nM in test [1], 3.22 nM in test [2], 5.6 nM in test [3] and 13.4 nM in test [4]. In test [2], the “Dmax (%) H1975 # 28 DTC” value was determined as 86.62%. In addition, the “H1975 #23 DC Dmax (%)” value in test [3] turned out to be 71.73%.
